Activity calls are given as the source filed them.
What was measured:
[1] = target: Cytochrome P450 3A4 (Homo sapiens, UniProt P08684);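 also: CYP3A4 tested as one member of a cytochrome P450 panel screen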
[2] = target: Cytochrome P450 2C19 (Homo sapiens, UniProt P33261); assay: Cytochrome panel assay with activity outcomes. Panel member name: p450-cyp2c19 Compounds with AC50 equal or less than 10 uM are considered active; type: functional
[3] = target: Mu-type opioid receptor (Homo sapiens, UniProt P35372); type: functional, cell-based;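 also: U2OS cells with beta-arrestin recruitment to OPRM1 by beta-gal complementation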
Chain of Mu-type opioid receptor (P35372 whole entry): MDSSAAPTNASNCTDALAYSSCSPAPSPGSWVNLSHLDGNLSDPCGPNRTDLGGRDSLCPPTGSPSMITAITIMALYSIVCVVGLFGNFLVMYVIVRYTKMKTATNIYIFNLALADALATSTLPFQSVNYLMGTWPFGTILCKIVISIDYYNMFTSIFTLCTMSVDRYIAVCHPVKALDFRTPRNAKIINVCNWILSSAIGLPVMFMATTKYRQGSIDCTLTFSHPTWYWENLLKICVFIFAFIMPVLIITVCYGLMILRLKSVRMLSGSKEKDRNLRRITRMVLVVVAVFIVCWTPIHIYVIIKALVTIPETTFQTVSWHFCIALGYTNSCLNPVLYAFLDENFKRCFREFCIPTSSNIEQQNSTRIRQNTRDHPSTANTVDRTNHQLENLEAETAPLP

[4] = Luminescence Cell-Based Dose Retest to Confirm Inhibitors of Cancer Stem Cells. [Related pubchem assays (depositor defined):AID2717, AID2721]; type: functional; details: Homo sapiens
[5] = target: 5-hydroxytryptamine receptor 2A (Mus musculus, UniProt P35363); type: functional, cell-based;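 also: CHO-K1 cells with tagged receptor and beta-arrestin; agonist potency measured as compound-induced activation of the receptor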
Chain of 5-hydroxytryptamine receptor 2A (P35363 whole entry): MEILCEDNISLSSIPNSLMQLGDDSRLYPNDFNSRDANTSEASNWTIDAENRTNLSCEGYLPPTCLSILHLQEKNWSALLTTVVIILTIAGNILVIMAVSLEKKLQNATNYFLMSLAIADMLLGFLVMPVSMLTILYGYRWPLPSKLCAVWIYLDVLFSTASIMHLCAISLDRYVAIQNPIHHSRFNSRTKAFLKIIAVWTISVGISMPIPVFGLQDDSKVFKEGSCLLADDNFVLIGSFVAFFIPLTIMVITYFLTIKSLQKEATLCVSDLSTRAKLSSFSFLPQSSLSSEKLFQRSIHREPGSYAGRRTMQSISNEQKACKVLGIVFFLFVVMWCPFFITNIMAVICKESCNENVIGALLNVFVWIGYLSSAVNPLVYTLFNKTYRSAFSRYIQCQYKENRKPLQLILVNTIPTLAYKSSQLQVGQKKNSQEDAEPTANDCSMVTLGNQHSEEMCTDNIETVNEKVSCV

[6] = target: Beta-galactosidase (Escherichia coli, UniProt Q8VNN2); assay: Dose response counterscreen for EBI2 assay utilizing the enzyme, b-galactosidase.; type: functional
Chain of Beta-galactosidase (Q8VNN2 whole entry): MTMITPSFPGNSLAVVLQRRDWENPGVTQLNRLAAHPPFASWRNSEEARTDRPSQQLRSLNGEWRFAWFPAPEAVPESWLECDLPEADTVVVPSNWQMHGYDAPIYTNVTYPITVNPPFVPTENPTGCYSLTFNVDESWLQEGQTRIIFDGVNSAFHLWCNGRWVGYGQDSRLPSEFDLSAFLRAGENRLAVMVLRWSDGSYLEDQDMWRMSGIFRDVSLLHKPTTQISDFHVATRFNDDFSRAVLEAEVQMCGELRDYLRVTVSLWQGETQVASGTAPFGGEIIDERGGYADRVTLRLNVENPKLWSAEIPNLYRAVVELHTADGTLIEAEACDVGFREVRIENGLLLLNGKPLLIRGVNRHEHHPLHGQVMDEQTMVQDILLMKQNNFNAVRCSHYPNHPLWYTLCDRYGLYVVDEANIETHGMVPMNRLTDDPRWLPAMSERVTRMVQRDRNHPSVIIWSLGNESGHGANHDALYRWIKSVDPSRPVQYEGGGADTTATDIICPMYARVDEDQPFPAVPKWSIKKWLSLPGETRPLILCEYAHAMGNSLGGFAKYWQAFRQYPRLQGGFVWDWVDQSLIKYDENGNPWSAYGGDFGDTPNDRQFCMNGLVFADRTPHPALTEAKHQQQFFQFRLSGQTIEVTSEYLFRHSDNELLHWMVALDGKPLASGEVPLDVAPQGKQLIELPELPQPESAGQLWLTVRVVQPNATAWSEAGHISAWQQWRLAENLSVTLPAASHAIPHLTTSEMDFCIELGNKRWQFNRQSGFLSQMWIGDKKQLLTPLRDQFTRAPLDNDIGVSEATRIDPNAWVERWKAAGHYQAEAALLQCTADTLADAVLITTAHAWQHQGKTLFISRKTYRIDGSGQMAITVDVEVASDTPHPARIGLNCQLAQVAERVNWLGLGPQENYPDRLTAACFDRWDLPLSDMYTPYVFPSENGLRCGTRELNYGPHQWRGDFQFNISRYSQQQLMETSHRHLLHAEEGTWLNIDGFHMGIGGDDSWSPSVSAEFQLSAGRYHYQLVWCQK

[7] = cytotoxicity in OVCAR8 ovarian cancer cells, dose response, PAX8 project, cell-based, plate reader, dry powder samples (AID 743197); type: functional; details: OVCAR-8
[8] = target: Paired box protein Pax-8 (Homo sapiens, UniProt Q06710); assay: inhibitors of PAX8-driven TPO luciferase reporter, dose response, RMG-I cells, cherry-pick (AID 687027); type: functional, cell-based;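 also: luciferase reporter driven by Pax8 target thyroperoxidase promoter measured by SteadyGlo luminescence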
Chain of Paired box protein Pax-8 (Q06710 whole entry): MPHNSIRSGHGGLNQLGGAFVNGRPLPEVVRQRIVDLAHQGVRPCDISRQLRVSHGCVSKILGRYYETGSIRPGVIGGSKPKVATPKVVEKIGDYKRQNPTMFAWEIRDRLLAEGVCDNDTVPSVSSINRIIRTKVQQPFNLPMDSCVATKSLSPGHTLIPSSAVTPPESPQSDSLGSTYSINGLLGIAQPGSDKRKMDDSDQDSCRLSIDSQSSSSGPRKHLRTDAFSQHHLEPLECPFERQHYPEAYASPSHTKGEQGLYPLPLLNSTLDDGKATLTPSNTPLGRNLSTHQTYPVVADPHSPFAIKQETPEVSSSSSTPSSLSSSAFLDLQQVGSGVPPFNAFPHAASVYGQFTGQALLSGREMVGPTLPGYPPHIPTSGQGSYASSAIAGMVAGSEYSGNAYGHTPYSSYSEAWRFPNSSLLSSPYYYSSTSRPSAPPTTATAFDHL

[9] = IGROV1 ovarian cancer cell cytotoxicity, dose response, PAX8 inhibitor project, plate reader, dry powder samples (AID 743043); type: functional, cell-based; details: IGROV-1
[10] = target: Prothrombin (Homo sapiens, UniProt P00734); assay: Thrombin 1536 HTS Dose Response Confirmation. [Related pubchem assays: 1046 (Thrombin 1536 HTS; hits were confirmed in this assay)]; type: functional
[11] = target: Glucose-6-phosphate 1-dehydrogenase (Homo sapiens, UniProt P11413); assay: human G6PD enzyme inhibitors, dose response, selectivity assay for P. falciparum G6PD inhibitor project, biochemical, fluorescence (AID 504792); type: functional
Chain of Glucose-6-phosphate 1-dehydrogenase (P11413 whole entry): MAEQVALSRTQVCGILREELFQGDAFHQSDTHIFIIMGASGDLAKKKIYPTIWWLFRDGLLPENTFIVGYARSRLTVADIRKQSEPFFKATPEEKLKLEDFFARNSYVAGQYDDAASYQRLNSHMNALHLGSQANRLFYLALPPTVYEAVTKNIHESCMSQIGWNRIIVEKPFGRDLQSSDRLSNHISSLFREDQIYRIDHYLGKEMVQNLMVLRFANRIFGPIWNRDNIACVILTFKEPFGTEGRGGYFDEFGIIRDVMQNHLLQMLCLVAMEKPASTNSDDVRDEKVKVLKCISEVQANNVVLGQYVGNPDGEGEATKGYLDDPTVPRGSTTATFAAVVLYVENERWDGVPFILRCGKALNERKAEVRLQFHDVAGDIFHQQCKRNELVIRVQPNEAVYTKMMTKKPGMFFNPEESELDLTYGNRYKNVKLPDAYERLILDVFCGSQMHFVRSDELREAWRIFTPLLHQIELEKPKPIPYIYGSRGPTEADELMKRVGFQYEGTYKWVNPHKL

[12] = T. cruzi growth inhibition in host cells, dose response, cell-based, plate reader, dry powder, set 2 (AID 652275); type: functional
[13] = cytotoxicity in HPDE-C7 cells, cell-based, fluorescence, HTS (AID 430); type: functional; details: Homo sapiens
[14] = cytotoxicity in KRAS-transformed pancreatic duct cells, primary screen, cell-based, fluorescence, HTS (AID 431); type: functional; details: Homo sapiens;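 also: cell line used: HPDE-C7K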
[15] = target: T1, Small ubiquitin-related modifier 1 (Homo sapiens, UniProt P63165); assay: inhibitors of SUMO1 peptide binding, dose response, biochemical, fluorescence polarization, uHTS hits (AID 624382); type: functional; details: read-out: IC50_Mean
T1 sequence (P63165 whole entry): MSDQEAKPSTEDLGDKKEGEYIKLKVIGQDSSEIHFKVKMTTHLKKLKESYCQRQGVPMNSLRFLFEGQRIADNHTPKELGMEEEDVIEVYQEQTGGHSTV

[16] = target: Genome polyprotein (dengue virus type 2, UniProt P29990); assay: Dengue-2 NS5 methyltransferase inhibitors, primary screen, biochemical, confirmation dose response (AID 588689); type: functional
Chain of Genome polyprotein (P29990 2492-3391 limits assumed): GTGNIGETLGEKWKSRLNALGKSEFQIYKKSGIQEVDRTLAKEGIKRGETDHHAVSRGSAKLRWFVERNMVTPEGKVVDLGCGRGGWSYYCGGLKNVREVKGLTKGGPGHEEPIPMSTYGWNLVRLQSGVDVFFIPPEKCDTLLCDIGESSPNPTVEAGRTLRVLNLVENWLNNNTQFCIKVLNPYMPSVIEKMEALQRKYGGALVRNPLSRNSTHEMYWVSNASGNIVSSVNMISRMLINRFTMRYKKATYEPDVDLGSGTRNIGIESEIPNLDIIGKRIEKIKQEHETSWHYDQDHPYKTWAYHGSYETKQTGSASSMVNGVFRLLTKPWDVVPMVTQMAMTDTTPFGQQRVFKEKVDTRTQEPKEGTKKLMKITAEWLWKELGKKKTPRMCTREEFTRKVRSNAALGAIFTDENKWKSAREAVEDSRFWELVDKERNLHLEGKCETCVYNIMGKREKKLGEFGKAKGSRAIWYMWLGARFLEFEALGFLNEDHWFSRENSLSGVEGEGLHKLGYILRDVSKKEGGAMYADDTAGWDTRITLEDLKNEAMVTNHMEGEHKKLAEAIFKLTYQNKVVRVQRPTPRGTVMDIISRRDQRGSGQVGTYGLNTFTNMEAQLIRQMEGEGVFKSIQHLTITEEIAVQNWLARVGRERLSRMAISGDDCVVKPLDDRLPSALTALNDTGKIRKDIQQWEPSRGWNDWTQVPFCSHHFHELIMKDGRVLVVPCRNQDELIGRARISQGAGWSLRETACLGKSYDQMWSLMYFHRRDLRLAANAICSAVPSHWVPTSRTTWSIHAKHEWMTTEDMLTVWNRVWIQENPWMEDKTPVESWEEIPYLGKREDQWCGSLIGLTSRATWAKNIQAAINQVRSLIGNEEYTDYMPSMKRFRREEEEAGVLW

[17] = target: T1, Small ubiquitin-related modifier 1; assay: inhibitors of SUMO1 partner interactions, dose response, biochemical, FRET (AID 624383); type: functional; details: read-out: IC50_Mean
[18] = target: Large T antigen (Simian virus 40, UniProt P03070); type: functional, Betapolyomavirus macacae;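 also: Confirmatory-stage PubChem screen for compounds that inhibit SV40 T antigen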
Chain of Large T antigen (P03070 whole entry): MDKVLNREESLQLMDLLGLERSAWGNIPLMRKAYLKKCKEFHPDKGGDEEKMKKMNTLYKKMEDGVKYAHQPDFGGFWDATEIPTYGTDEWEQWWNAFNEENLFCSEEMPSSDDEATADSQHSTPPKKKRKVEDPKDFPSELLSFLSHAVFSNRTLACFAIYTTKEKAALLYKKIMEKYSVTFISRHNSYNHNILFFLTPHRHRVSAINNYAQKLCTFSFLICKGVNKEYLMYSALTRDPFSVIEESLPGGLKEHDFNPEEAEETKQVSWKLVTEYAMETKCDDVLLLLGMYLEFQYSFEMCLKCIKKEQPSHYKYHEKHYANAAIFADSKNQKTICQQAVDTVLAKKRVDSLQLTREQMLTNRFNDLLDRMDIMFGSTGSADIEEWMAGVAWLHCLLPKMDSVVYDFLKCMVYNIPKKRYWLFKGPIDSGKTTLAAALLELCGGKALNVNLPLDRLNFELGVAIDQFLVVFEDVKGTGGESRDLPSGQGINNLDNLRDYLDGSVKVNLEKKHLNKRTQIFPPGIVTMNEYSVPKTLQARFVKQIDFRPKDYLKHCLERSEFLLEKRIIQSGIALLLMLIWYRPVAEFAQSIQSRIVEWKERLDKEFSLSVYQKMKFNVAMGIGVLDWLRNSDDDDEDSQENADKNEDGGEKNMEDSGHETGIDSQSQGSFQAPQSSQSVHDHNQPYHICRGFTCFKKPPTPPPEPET

[19] = inhibitors of intracellular T. cruzi replication, confirmation, NIH3T3 host cells, beta-gal luminescence (AID 2044); type: functional, cell-based;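 also: intracellular parasites grown in NIH/3T3 mouse fibroblasts as host cells; luminescent beta-galactosidase reporter signal from transgenic T. cruzi replicating inside host cells; inhibitors lower the luminescence signal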
[20] = cytotoxicity toward NIH3T3 fibroblasts, dose response, counter-screen, cell-based, ATP luminescence, mouse fibroblasts (AID 2010); type: functional;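 also: cells exposed to compound for about 90 hours before reading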

## O=C(O)CC(c1cccc2ccccc12)n1cccc1 (configuration not stated)
[1]
  AC50: inconclusive
[2]
  AC50: 28.2 µM (inconclusive)

## Cc1cc(C)c(O)c(-c2[nH]nc3c2C(c2cccc(O)c2)N(Cc2ccco2)C3=O)c1 (configuration not stated)
[3]
  EC50: 92.5 µM (inactive)
[4]
  AC50: 5.49 µM (active)
[5]
  EC50: 8.01 µM (active)

## c1ccc(OCCNc2nc(NCC3CC3)nc3cc(-c4ccccc4)sc23)cc1
[6]
  IC50: 104 µM (inactive)

## O=C(C[C@H]1CC[C@@H]2[C@H](COC[C@H](O)CN2S(=O)(=O)c2cccc(F)c2)O1)Nc1ccc(-c2ccccc2)cc1
[7]
  AC50: 42.6 µM (active)
[8]
  AC50: 17.2 µM (active)
[9]
  AC50: 59.4 µM (active)

## CCCCOC(=O)n1ccc(C(=O)Nc2ccccc2OC)n1
[10]
  IC50: 13.8 µM (active)

## CC(C)N1CCOC(c2ccc(O)c(O)c2)C1 (configuration not stated)
[3]
  EC50: 92.3 µM (inactive)
[5]
  EC50: 1.68 µM (active)

## CCc1ccccc1N1CSC2=C(C#N)C(c3ccccc3F)CC(=O)N2C1 (configuration not stated)
[11]
  IC50: > 80 µM (inactive)

## Nc1nc(-c2ccco2)nn1C(=O)c1ccccc1
[10]
  IC50: 0.926 µM (active)

## CN(C)CC#Cc1cccc(-c2nc(C(=O)NCc3ccc4c(c3)OCO4)cc3c2[C@@H](CCO)N([S+]([O-])C(C)(C)C)C3)c1 (some centres not stated)
[12]
  AC50: 0.0993 µM (active)

## COc1ccc(C(=O)CSc2cc(C)nc3nc(C)nn23)cc1OC
[13]
  EC50: > 20 µM (not active)
[14]
  EC50: > 20 µM (not active)

## O=C(O)c1cccc(-n2cccc2/C=C/[N+](=O)[O-])c1
[15]
  IC50: > 66.6 µM (inactive)
[16]
  IC50: 53.6 µM (active)
[17]
  IC50: 26.5 µM (inactive)

## CCOC(=O)N1CCN(C(=O)c2cc3cc(C)ccc3[nH]2)CC1
[6]
  IC50: > 80 µM (inactive)

## CC(=O)CC1OC(O)=C(Br)/C1=N/Cc1ccccc1 (configuration not stated)
[18]
  IC50: 41.6 µM (active)
[13]
  EC50: 7.33 µM (active)
[19]
  EC50: 0.808 µM (active)
[14]
  EC50: 9.82 µM (active)
[20]
  EC50: 4.68 µM (active)

## O=C(COc1ccc(Cl)cc1)N1CCN(Cc2ccc3c(c2)OCO3)CC1 [FIPEXIDE]
[6]
  IC50: > 80 µM (inactive)

Source: ChEMBL document CHEMBL1201862, “PubChem BioAssay data set” (2004)
